The values that follow come from ChEMBL document CHEMBL1154198, “Chemical genetics of Plasmodium falciparum” (Nature, 2010).

Structures are written as SMILES. pEC50: −log10 of the molar value.

Experiment [1] has as its system Plasmodium falciparum. Put plainly: ST_JUDE: Plasmodium falciparum K1 EC50 (uM) as measured by SYBR green dye. The class given is functional, organism-based.
For experiment [2], the system named is Plasmodium falciparum. Briefly: ST_JUDE: Plasmodium falciparum 3D7 EC50 (uM) as measured by SYBR green dye. Type of experiment: functional, organism-based.

In the case of `CCCCn1c(C)c(C(=O)OCC)c2cc(OC(C)=O)c(Br)cc21`, the pEC50 (as a rule, the negative decadic logarithm of the EC50, by convention in mol/L) in experiment [1] was less than 4.82; in experiment [2], 5.56.

On to `O=C(Nc1cccc(C(F)(F)F)c1)Nc1ccc(Cl)c(Cl)c1`, for which the values for the pEC50 in experiment [1] and in experiment [2] were 6.13 and less than 4.82, respectively.

For `CCCC(=O)NC(c1ccc(C)cc1)c1ccc2cccnc2c1O` (configuration not stated), the pEC50 in experiment [1] is less than 4.82; in experiment [2], 5.38.

Consider `Cc1cc(N2CCC(N(C)C3CCCC3)CC2)nc2cc(O)ccc12`, for which the negative logarithm of the EC50 (pEC50) in experiment [1] was less than 4.82; in experiment [2], 5.81.

With `CCCN1CCN(CCCNC(=O)c2ccc3c(c2)sc2nc(-c4ccc(OC)cc4)cn23)CC1`, the negative-log EC50 (pEC50) was less than 4.82 in experiment [1] and 6.08 in experiment [2].

`Fc1ccccc1Nc1nc(NCc2ccccc2)c2ccccc2n1`: the results for the negative-log EC50 (pEC50) in experiment [1] and in experiment [2] were 5.04 and 5.46, respectively.

As to `Cc1nnc(NCCN2CCOCC2)nc1O`, the pEC50 in experiment [1] and in experiment [2] was less than 4.82 in each case.

For the compound `CCc1cc(-c2[nH]ncc2-c2ccc(F)cc2)c(O)cc1OC`, the negative-log EC50 (pEC50) in experiment [1] and in experiment [2] was less than 4.82 throughout.

Turning to `CCc1cccc2c(C#N)cn(CCOc3ccccc3F)c12`, the pEC50 in experiment [1] was 6.01; in experiment [2], 5.90.

`OCCN1CCN(c2nc(Nc3ccc(F)cc3)c3cnn(-c4ccccc4)c3n2)CC1`: the negative-log EC50 (pEC50) in experiment [1] is 5.86; in experiment [2] it was 5.92.

Regarding `CC(C)(C)c1cc(C(=O)Cn2c(NCCO)nc3ccccc32)cc(C(C)(C)C)c1O`, the negative-log EC50 (pEC50) in experiment [1] and in experiment [2] was less than 4.82 each time.

For `COc1ccc(Cn2c(SCc3cccc(F)c3)nc3nccnc3c2=O)cc1`, the pEC50 in experiment [1] and in experiment [2] was less than 4.82 each time.

For `CCC(=O)NC(c1ccc(Cl)cc1)c1ccc2cccnc2c1O` (configuration not stated), the pEC50 in experiment [1] was 5.74; in experiment [2], 5.69.

In the case of `Cc1ccnc(NC(c2ccc([N+](=O)[O-])cc2)c2ccc3cccnc3c2O)c1` (configuration not stated), the pEC50 in experiment [1] was 5.43; in experiment [2], 5.74.

As to `CCCCN1COc2c(c3c(C(C)=O)c(C)oc3c3ccccc23)C1`, the pEC50 in experiment [1] is 5.37; in experiment [2], less than 4.82.

Consider `O=C(Cc1ccccc1)NC(c1ccc([N+](=O)[O-])cc1)c1c(O)ccc2ccccc12` (configuration not stated), for which the pEC50 in experiment [1] is 5.24; in experiment [2], 5.20.

With `CCc1c2cccn2cc[n+]1C`, the pEC50 is 5.22 in experiment [1] and 5.15 in experiment [2].

As for `Cc1ccsc1CN(C(=O)COc1ccc(C(C)C)cc1)C1CCS(=O)(=O)C1` (configuration not stated), the negative logarithm of the EC50 (pEC50) in experiment [1] and in experiment [2] was less than 4.82 in each case.

Consider `O=C(C1CCCO1)N1N=C(c2c(O)nc3ccc(Cl)cc3c2-c2ccccc2)CC1c1ccco1` (configuration not stated), for which the negative-log EC50 (pEC50) in experiment [1] and in experiment [2] was less than 4.82 throughout.

For `Cc1cc(N(C)C)nc(Nc2ccc(NS(=O)(=O)c3cccc(Cl)c3)cc2)n1`, the negative logarithm of the EC50 (pEC50) in experiment [1] was less than 4.82; in experiment [2], 5.11.

For `CCN(CC)CCN1C(=O)c2oc3ccccc3c(=O)c2C1c1cccc(Cl)c1` (configuration not stated), the pEC50 is 5.96 in experiment [1] and 6.01 in experiment [2].

With `COc1cccc(CNC(=O)C2c3ccccc3C(=O)N(CC(C)C)C2c2cccs2)c1` (configuration not stated), the negative logarithm of the EC50 (pEC50) was 5.38 in experiment [1] and 5.28 in experiment [2].

Regarding `CCOc1ccc(/C=c2\sc3n(c2=O)CN(c2cccc(F)c2)CN=3)cc1`, the negative logarithm of the EC50 (pEC50) in experiment [1] and in experiment [2] was less than 4.82 in each case.

Turning to `CC(C)(C)CC(C)(C)NCC(O)COc1ccc2c(c1)CCC2` (configuration not stated), the negative logarithm of the EC50 (pEC50) in experiment [1] is 5.91; in experiment [2], 5.35.

On to `COc1ccc(N2C(=O)/C(=C/Nc3ccccc3OC)c3ccccc3C2=O)cc1`, for which the pEC50 in experiment [1] and in experiment [2] was less than 4.82 throughout.

Consider `O=C(Nc1ccc(Cl)cc1)C1c2ccccc2C(=O)N(C2CCCC2)C1c1cccs1` (configuration not stated), for which the pEC50 is 5.97 in experiment [1] and 6.25 in experiment [2].

For `CCN(CC)CC/N=c1\cc(-c2ccc(OC)c(OC)c2)oc2ccc(Cl)cc12.[O-][Cl+3]([O-])([O-])O`, the negative logarithm of the EC50 (pEC50) in experiment [1] was 5.29; in experiment [2], 6.27.

For `Cc1n[nH]c(-c2ccc(OC(C)C)cc2O)c1Oc1ccccc1`, the pEC50 in experiment [1] is 5.54; in experiment [2], 5.25.

Consider `CCN(CC)C(=O)c1ccc2c(c1)N(Cc1ccccc1)C(=O)c1ccccc1S2(=O)=O`, for which the pEC50 in experiment [1] and in experiment [2] was less than 4.82 each time.

As for `CCC1CCCCN1CCCNC(=S)Nc1ccc2nc(N3CCN(CC)CC3)cc(C)c2c1` (configuration not stated), the results for the pEC50 in experiment [1] and in experiment [2] were 5.04 and 5.36, respectively.

For the compound `CCCCNc1ccc2cccc(O)c2n1`, the pEC50 in experiment [1] is 5.36; in experiment [2], less than 4.82.

On to `Cc1ccccc1C(=O)N(Cc1cccnc1)c1nc2c(F)cccc2s1`, for which the pEC50 is less than 4.82 in experiment [1] and 5.33 in experiment [2].

For the compound `O=C(CC1N=C2c3ccccc3N=C(SCc3ccc(F)cc3)N2C1=O)NCc1ccco1` (configuration not stated), the pEC50 in experiment [1] was 5.24; in experiment [2], 5.09.

On to `CNc1c([N+](=O)[O-])nn(-c2ccc(Cl)cc2)[n+]1[O-]`, for which the results for the negative-log EC50 (pEC50) in experiment [1] and in experiment [2] were 5.42 and less than 4.82, respectively.

In the case of `CN(C)c1ccc(/C=C/c2cc(/C=C/c3ccc(N(C)C)cc3)n3n[n+](C)nc3n2)cc1.[O-][Cl+3]([O-])([O-])[O-]`, the figures for the pEC50 in experiment [1] and in experiment [2] were 6.29 and 6.19, respectively.

`CCOC(=O)C1=C(C)N=c2s/c(=C\c3cc(OC)ccc3O)c(=O)n2C1c1ccccc1` (configuration not stated): the pEC50 in experiment [1] and in experiment [2] was less than 4.82 each time.

As to `CCC[N+]1(C)CCC2C(C1)c1ccccc1N2Cc1ccccc1` (configuration not stated), the pEC50 in experiment [1] is less than 4.82; in experiment [2], 5.37.

Regarding `CCc1cccc2c(C#N)cn(CCOc3ccccc3Cl)c12`, the values for the pEC50 in experiment [1] and in experiment [2] were 6.24 and 6.29, respectively.

Take `CCCc1cc(O)nc(-n2nc(C)cc2NC(=O)c2cc(Cl)ccc2Cl)n1`: the pEC50 in experiment [1] and in experiment [2] was less than 4.82 throughout.

Regarding `C=CCc1cccc(/C=N/NC(=O)c2cccs2)c1O`, the negative-log EC50 (pEC50) was 5.17 in experiment [1] and less than 4.82 in experiment [2].

`Cc1ccc(Nc2c(-c3ccccn3)nc3ccc(C)cn23)cc1`: the pEC50 was less than 4.82 in experiment [1] and 5.41 in experiment [2].

For the compound `Cc1ccc(S(=O)(=O)NCC(c2cccnc2)N2CCN(c3ccccc3F)CC2)cc1` (configuration not stated), the pEC50 in experiment [1] and in experiment [2] was less than 4.82 each time.

Take `CCCOCc1cc(CN2CCN(c3cccc(Cl)c3)CC2)c(O)c2ncccc12`: the pEC50 in experiment [1] is 6.05; in experiment [2], 5.96.

For the compound `Oc1ccc(C(=C(Cl)Cl)c2ccc(O)cc2)cc1`, the pEC50 is 6.03 in experiment [1] and 5.61 in experiment [2].

Turning to `Cc1cc(C)c2nc(NC(=O)CSc3ccc(F)cc3)sc2c1`, the negative logarithm of the EC50 (pEC50) in experiment [1] and in experiment [2] was less than 4.82 in each case.

Take `O=C(c1cccc(F)c1)N(Cc1cccnc1)c1nc2ccc(F)cc2s1`: the pEC50 was 5.37 in experiment [1] and less than 4.82 in experiment [2].

For `O=C(Nc1ccc(Cl)c(Cl)c1)c1ccc(-c2ccccc2)cc1`, the negative logarithm of the EC50 (pEC50) in experiment [1] and in experiment [2] was less than 4.82 in each case.

As to `CN1/C(=C/c2cccc[n+]2CCO)Sc2ccccc21`, the negative logarithm of the EC50 (pEC50) is 5.92 in experiment [1] and 5.75 in experiment [2].

For `COc1nc(N=C(N)N)nc2c(C)cccc12`, the negative-log EC50 (pEC50) in experiment [1] is 5.47; in experiment [2] it was 5.62.

For `CN(C)S(=O)(=O)c1ccc(C(=O)NNc2nc3ccc(Cl)cc3s2)cc1`, the figures for the pEC50 in experiment [1] and in experiment [2] were 5.35 and 5.33, respectively.

With `C[n+]1ccc(C=Cc2ccc(O)cc2)cc1`, the negative logarithm of the EC50 (pEC50) in experiment [1] and in experiment [2] was 5.40 throughout.

On to `CCc1nc2sc(C(c3cccc(F)c3)N3CCN(c4ccc(OC)cc4)CC3)c(O)n2n1` (configuration not stated), for which the pEC50 in experiment [1] and in experiment [2] was less than 4.82 throughout.

Turning to `CC(=O)N(C1=C(N2CCOCC2)C(=O)c2ccccc2C1=O)c1ccc(F)cc1`, the pEC50 in experiment [1] is 6.26; in experiment [2] it was 6.29.

`CCOc1cc(C2C3=C(O)CC(c4ccc(Cl)cc4)CC3=NC(C)=C2C(=O)OC(C)C)ccc1O` (configuration not stated): the pEC50 in experiment [1] is 5.79; in experiment [2], 5.81.

Regarding `CCCCC(=O)NC(c1ccc(N(CC)CC)cc1)c1ccc2cccnc2c1O` (configuration not stated), the negative logarithm of the EC50 (pEC50) in experiment [1] is 5.52; in experiment [2] it was 5.78.

On to `CC(=O)Nc1ccc(S(=O)(=O)N2CCN(c3ccc(Nc4ccccc4)nn3)CC2)cc1`, for which the values for the pEC50 in experiment [1] and in experiment [2] were less than 4.82 and 5.14, respectively.

Take `CCN(CC)c1ccc(C2NC(=O)NC(O)(C(F)(F)F)C2C(=O)c2cccnc2)cc1` (configuration not stated): the pEC50 in experiment [1] is 5.07; in experiment [2], 5.04.

On to `CC(=O)C1=C(c2ccc(Br)cc2)N(C(C)=O)n2cnnc2S1`, for which the negative-log EC50 (pEC50) is 5.81 in experiment [1] and less than 4.82 in experiment [2].

With `CCN(CC)CCNC(=O)CCc1nnc2n(Cc3ccc(Cl)cc3)c(=O)c3ccccc3n12`, the negative logarithm of the EC50 (pEC50) in experiment [1] and in experiment [2] was less than 4.82 in each case.

For `COc1ccc(CNCCc2ccc(F)cc2)cc1C`, the pEC50 in experiment [1] and in experiment [2] was less than 4.82 each time.

As for `COc1cc(OC)cc(-c2nnc(NC(=O)c3cccc(S(C)(=O)=O)c3)o2)c1`, the pEC50 in experiment [1] and in experiment [2] was less than 4.82 each time.

With `CCC1=Nc2cc(C(=O)NCc3ccco3)ccc2Sc2ccc(Cl)cc21`, the pEC50 in experiment [1] is 5.20; in experiment [2] it was 5.43.

As for `CCCN(CCC)CCCNC(=O)c1cc2c(-c3ccc(OC)c(OC)c3)nn(C)c2s1`, the pEC50 in experiment [1] was less than 4.82; in experiment [2], 5.39.

As for `CN1CCN(Cc2c(O)ccc3c(=O)c(Oc4ccccc4Cl)c(C(F)(F)F)oc23)CC1`, the results for the pEC50 in experiment [1] and in experiment [2] were 6.15 and 5.77, respectively.

For the compound `O=C(Nc1ccccc1-c1ccccc1)C(Cl)(Cl)Cl`, the pEC50 is 5.94 in experiment [1] and 5.81 in experiment [2].

Regarding `CCC(C)c1ccc(NC(=O)c2cc(Br)ccc2OC)c(O)c1` (configuration not stated), the negative-log EC50 (pEC50) in experiment [1] is 5.67; in experiment [2], 5.22.

Turning to `COc1ccc(-n2c(C)cc(/C=c3\sc4nc5ccccc5n4c3=O)c2C)cc1`, the pEC50 in experiment [1] and in experiment [2] was less than 4.82 each time.

For the compound `CCN1C(=O)c2ccccc2Sc2ccc(NC(=O)NCc3ccccc3Cl)cc21`, the negative logarithm of the EC50 (pEC50) in experiment [1] and in experiment [2] was less than 4.82 each time.

As to `CC(=O)NC1=NN(C(C)=O)C(C)(c2cccc(NC(C)=O)c2)S1` (configuration not stated), the negative logarithm of the EC50 (pEC50) is 5.38 in experiment [1] and 5.45 in experiment [2].

As for `Cc1cccc(-n2ccnc2SCC(=O)Nc2cccc(F)c2)c1C`, the negative-log EC50 (pEC50) in experiment [1] is 5.10; in experiment [2], less than 4.82.

Take `CN(C)c1ccc(-c2n(C)c3ccccc3[n+]2C)cc1`: the figures for the pEC50 in experiment [1] and in experiment [2] were 5.36 and less than 4.82, respectively.
